Assay [1] deals with Adenosine kinase (Homo sapiens, UniProt P55263).
Assay [2] addresses T1, Mitogen-activated protein kinase kinase kinase kinase 3 (Homo sapiens, UniProt Q8IVH8).
T1 sequence (Q8IVH8 whole entry): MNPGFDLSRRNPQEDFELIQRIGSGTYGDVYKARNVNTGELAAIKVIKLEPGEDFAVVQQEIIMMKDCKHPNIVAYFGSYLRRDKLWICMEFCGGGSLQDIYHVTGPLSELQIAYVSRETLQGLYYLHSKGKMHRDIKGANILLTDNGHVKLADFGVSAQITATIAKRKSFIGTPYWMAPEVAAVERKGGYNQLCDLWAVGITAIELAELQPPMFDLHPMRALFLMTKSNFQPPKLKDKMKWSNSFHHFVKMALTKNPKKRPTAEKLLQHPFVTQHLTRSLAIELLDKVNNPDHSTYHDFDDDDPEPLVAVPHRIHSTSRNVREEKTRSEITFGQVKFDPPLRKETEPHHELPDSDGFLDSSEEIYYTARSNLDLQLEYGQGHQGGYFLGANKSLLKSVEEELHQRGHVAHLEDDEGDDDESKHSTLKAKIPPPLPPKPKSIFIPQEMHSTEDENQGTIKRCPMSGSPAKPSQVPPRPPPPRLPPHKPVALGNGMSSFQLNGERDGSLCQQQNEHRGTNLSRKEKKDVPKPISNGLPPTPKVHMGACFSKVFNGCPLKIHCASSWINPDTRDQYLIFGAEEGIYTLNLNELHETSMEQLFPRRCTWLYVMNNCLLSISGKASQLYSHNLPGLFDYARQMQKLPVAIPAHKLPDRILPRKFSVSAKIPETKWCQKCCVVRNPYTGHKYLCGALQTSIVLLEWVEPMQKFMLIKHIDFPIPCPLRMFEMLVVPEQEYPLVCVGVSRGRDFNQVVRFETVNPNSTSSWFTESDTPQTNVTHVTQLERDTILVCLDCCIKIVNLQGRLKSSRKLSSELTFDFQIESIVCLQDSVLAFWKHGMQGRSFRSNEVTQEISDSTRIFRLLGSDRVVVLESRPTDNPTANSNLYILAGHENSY

In assay [3] the target is Mitogen-activated protein kinase 9 (Homo sapiens, UniProt P45984).
Chain of Mitogen-activated protein kinase 9 (P45984 whole entry): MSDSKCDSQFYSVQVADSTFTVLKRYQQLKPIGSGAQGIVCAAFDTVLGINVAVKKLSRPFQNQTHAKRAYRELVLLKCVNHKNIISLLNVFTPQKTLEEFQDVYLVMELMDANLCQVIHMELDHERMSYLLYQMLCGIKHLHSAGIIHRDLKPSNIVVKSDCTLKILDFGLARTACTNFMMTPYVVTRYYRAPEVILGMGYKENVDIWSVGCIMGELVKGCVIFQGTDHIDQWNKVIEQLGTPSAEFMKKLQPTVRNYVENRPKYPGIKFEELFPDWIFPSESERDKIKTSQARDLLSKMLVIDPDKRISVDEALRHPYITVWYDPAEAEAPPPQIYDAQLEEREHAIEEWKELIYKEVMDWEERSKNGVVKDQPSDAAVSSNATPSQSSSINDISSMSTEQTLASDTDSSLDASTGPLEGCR
Assay [4] concerns the target T2, MAP/microtubule affinity-regulating kinase 4 (Homo sapiens, UniProt Q96L34).
T2 sequence (Q96L34 whole entry): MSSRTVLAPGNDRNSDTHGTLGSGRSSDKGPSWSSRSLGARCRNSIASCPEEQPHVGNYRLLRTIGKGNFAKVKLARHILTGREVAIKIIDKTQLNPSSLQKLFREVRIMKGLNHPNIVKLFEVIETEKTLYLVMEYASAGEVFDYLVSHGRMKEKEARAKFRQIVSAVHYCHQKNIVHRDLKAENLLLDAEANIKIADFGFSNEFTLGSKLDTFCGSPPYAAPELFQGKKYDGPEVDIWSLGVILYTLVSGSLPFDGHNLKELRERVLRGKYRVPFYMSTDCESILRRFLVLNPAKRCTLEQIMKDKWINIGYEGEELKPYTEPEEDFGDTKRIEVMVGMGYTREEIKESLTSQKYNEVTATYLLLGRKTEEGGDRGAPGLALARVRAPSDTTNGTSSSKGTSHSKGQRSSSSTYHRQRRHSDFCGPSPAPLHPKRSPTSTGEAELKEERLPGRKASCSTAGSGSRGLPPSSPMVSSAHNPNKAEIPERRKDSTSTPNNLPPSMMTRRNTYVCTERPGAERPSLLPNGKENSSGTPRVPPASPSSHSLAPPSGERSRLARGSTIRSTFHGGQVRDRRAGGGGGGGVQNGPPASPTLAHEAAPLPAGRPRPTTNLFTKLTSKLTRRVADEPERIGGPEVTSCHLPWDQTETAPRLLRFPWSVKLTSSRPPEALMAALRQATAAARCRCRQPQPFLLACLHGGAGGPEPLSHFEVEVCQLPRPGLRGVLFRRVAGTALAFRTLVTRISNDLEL

The target of assay [5] is T3, Serine/threonine-protein kinase NLK (Homo sapiens, UniProt Q9UBE8).
T3 sequence (Q9UBE8 whole entry): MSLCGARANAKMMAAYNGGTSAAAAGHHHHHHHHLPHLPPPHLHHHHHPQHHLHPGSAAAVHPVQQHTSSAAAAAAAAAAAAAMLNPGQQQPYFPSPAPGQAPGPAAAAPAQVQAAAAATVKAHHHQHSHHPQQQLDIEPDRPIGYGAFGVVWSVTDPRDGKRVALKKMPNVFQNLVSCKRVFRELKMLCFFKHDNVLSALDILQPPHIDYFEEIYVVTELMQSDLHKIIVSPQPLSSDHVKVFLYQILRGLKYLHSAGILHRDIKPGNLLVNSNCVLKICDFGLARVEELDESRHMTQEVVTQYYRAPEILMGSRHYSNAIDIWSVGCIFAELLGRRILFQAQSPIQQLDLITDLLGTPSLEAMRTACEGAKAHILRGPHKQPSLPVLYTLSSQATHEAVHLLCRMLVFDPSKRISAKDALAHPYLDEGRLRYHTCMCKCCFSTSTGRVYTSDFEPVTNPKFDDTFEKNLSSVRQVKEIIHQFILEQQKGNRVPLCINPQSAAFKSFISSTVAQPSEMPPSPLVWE

Assay [6] deals with DNA topoisomerase 2-beta (Homo sapiens, UniProt Q02880).
Chain of DNA topoisomerase 2-beta (Q02880 whole entry): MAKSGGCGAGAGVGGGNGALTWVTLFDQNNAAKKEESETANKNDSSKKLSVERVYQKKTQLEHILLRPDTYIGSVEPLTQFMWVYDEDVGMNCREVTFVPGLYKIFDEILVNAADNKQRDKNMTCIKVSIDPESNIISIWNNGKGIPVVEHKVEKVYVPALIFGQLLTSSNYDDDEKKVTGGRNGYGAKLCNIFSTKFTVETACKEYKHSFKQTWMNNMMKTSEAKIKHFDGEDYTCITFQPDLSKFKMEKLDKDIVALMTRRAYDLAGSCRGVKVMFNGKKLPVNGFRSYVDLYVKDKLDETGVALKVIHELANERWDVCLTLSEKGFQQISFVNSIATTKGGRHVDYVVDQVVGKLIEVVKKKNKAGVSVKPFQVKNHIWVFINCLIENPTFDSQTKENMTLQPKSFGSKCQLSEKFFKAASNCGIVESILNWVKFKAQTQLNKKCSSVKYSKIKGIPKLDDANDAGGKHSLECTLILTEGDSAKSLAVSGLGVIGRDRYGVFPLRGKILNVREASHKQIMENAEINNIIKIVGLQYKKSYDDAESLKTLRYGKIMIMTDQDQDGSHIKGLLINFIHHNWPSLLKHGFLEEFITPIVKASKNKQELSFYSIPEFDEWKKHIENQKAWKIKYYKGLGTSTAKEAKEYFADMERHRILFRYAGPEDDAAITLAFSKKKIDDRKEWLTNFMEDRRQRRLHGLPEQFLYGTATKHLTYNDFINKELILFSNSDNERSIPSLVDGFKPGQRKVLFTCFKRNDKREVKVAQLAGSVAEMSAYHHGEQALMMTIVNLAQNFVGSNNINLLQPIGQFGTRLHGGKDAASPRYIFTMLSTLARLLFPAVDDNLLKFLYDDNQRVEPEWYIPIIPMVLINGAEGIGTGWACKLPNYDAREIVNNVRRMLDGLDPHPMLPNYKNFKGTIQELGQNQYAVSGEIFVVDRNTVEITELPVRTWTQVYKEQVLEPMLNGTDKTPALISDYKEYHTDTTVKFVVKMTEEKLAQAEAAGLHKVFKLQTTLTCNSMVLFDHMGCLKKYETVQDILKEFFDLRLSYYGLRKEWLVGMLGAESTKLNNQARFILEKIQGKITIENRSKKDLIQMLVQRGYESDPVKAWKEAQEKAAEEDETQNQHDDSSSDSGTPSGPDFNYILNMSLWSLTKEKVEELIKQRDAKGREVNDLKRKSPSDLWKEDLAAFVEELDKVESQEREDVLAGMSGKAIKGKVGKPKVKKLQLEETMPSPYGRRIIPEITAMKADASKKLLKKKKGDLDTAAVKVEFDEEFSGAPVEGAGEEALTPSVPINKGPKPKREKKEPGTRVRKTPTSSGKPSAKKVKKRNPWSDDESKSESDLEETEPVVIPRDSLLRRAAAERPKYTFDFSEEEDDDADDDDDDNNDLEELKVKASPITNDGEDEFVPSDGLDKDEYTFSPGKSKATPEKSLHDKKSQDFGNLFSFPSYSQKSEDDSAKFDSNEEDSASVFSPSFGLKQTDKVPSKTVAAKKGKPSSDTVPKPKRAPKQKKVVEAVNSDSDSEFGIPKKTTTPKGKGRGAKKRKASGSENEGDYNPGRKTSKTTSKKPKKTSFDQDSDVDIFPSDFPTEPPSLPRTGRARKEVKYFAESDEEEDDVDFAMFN

SMILES strings stand for the structures. Active and inactive are the calls of the source.
Further: in the data inactive means no Kd found up to 30 µM.

Chain of Adenosine kinase (P55263 whole entry): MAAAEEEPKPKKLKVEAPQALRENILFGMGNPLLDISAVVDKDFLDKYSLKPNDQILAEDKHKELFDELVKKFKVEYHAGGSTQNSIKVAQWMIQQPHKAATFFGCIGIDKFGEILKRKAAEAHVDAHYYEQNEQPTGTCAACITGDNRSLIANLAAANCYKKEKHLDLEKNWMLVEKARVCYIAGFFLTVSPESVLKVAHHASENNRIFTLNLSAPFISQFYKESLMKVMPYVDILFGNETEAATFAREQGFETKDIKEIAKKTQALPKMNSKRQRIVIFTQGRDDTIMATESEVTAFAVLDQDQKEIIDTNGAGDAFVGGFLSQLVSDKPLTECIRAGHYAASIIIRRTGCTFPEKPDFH

Consider `CC[C@H](Nc1ncnc2[nH]cnc12)c1nc2cccc(F)c2c(=O)n1-c1ccccc1` [IDELALISIB], for which the Kd in assay [1], in assay [2], in assay [3], in assay [4], in assay [5] and in assay [6] was > 30 µM (inactive) each time.

Turning to `CNC(=O)CN1CCC(Oc2cc3c(Nc4cccc(Cl)c4F)ncnc3cc2OC)CC1` [SAPITINIB], the dissociation constant Kd was 1.4 µM in assay [1]; > 30 µM (inactive) in assay [2]; > 30 µM (inactive) in assay [3]; > 30 µM (inactive) in assay [4]; > 30 µM (inactive) in assay [5]; > 30 µM (inactive) in assay [6].

Take `Cc1ccc(S(=O)(=O)Nc2nc3ccccc3nc2Nc2ccc3nsnc3c2)cc1`: the Kd in assay [1], in assay [2], in assay [3], in assay [4], in assay [5] and in assay [6] was > 30 µM (inactive) each time.

With `Cc1ccc(NC(=O)c2ccc(CN3CC[C@H](N(C)C)C3)c(C(F)(F)F)c2)cc1Nc1nccc(-c2cncnc2)n1` [BAFETINIB], the Kd in assay [1], in assay [2], in assay [3], in assay [4], in assay [5] and in assay [6] was > 30 µM (inactive) throughout.

In the case of `Cc1ccc(-n2nc(C(C)(C)C)cc2NC(=O)NCc2cc(F)ccc2Oc2ccc3c(cnn3CCO)c2)cc1` [PEXMETINIB], the Kd in assay [1] was > 30 µM (inactive); in assay [2], > 30 µM (inactive); in assay [3], 0.312 µM (active); in assay [4] it was > 30 µM (inactive); in assay [5], > 30 µM (inactive); in assay [6], > 30 µM (inactive).

On to `CNS(=O)(=O)Nc1nccc(Cc2c(C)c3ccc(Oc4ncccn4)cc3oc2=O)c1F` [AVUTOMETINIB], for which the Kd in assay [1], in assay [2], in assay [3], in assay [4], in assay [5] and in assay [6] was > 30 µM (inactive) throughout.

In the case of `COc1ccc(-c2ccc3c(N4CCOC[C@@H]4C)nc(N4CCOC[C@@H]4C)nc3n2)cc1CO` [AZD-8055], the Kd in assay [1], in assay [2], in assay [3], in assay [4], in assay [5] and in assay [6] was > 30 µM (inactive) in each case.

Turning to `C1=C/COCc2cc(ccc2OCCN2CCCC2)Nc2nccc(n2)-c2cccc(c2)COC/1` [PACRITINIB], the Kd in assay [1], in assay [2], in assay [3], in assay [4], in assay [5] and in assay [6] was > 30 µM (inactive) each time.

With `O=C(O)[C@]1(Cc2cccc(Nc3nccs3)n2)CC[C@@H](Oc2cccc(Cl)c2F)CC1` [MK-5108], the Kd in assay [1], in assay [2], in assay [3], in assay [4], in assay [5] and in assay [6] was > 30 µM (inactive) each time.

For the compound `COc1cc2nccc(Oc3ccc(NC(=O)Nc4cc(C)on4)c(Cl)c3)c2cc1OC` [TIVOZANIB], the Kd in assay [1], in assay [2], in assay [3], in assay [4], in assay [5] and in assay [6] was > 30 µM (inactive) in each case.

As for `CN1CCC(CNc2ccc3ncc(-c4cccc(OC(F)(F)F)c4)n3n2)CC1` [SGI-1776], the Kd in assay [1], in assay [2], in assay [3], in assay [4], in assay [5] and in assay [6] was > 30 µM (inactive) throughout.

Turning to `CC(=O)Nc1cccc(-n2c(=O)n(C3CC3)c(=O)c3c(Nc4ccc(I)cc4F)n(C)c(=O)c(C)c32)c1` [TRAMETINIB], the Kd in assay [1], in assay [2], in assay [3], in assay [4], in assay [5] and in assay [6] was > 30 µM (inactive) throughout.

Take `CCCS(=O)(=O)Nc1ccc(F)c(C(=O)c2c[nH]c3ncc(-c4ccc(Cl)cc4)cc23)c1F` [VEMURAFENIB]: the Kd in assay [1], in assay [2], in assay [3], in assay [4], in assay [5] and in assay [6] was > 30 µM (inactive) in each case.

With `COCCNCc1ccc(-c2cc3nccc(Oc4ccc(NC(=S)NC(=O)Cc5ccc(F)cc5)cc4F)c3s2)nc1` [GLESATINIB], the Kd in assay [1], in assay [2], in assay [3], in assay [4], in assay [5] and in assay [6] was > 30 µM (inactive) each time.

Take `COC(=O)[C@@]1(O)C[C@H]2O[C@]1(C)n1c3ccccc3c3c4c(c5c6ccccc6n2c5c31)C(=O)NC4` [K-252A]: the Kd was > 30 µM (inactive) in assay [1]; 2.37 µM (active) in assay [2]; 0.986 µM (active) in assay [3]; 0.028 µM (active) in assay [4]; > 30 µM (inactive) in assay [5]; > 30 µM (inactive) in assay [6].

As for `Cn1cc(-c2ccc3nnc(C(F)(F)c4ccc5ncccc5c4)n3n2)cn1` [JNJ-38877605], the Kd in assay [1], in assay [2], in assay [3], in assay [4], in assay [5] and in assay [6] was > 30 µM (inactive) in each case.

In the case of `Cc1cc([C@@H](C)Nc2ccccc2C(=O)O)c2nc(N3CCOCC3)cc(=O)n2c1` [AZD-6482], the Kd in assay [1], in assay [2], in assay [3], in assay [4], in assay [5] and in assay [6] was > 30 µM (inactive) in each case.

As to `COc1cc(CCc2cc(NC(=O)c3ccc(N4C[C@@H](C)N[C@@H](C)C4)cc3)n[nH]2)cc(OC)c1` [AZD-4547], the Kd in assay [1] is > 30 µM (inactive); in assay [2], 0.049 µM (active); in assay [3] it was > 30 µM (inactive); in assay [4] it was > 30 µM (inactive); in assay [5] it was > 30 µM (inactive); in assay [6] it was > 30 µM (inactive).

The values are drawn from ChEMBL document CHEMBL3991601, “The target landscape of clinical kinase drugs” (Science, 2017).
